Earlier results on one compound are cited in patent US20220031887A1, “Active Materials, Surfaces, Surface Treatments And Methods Using Inclusion Complex Formers For Pathogen Reduction” (priority 2020, published 2022).

Turning to `O=C1OC2(c3ccccc31)c1cc(Br)c(O)c(Br)c1Oc1c2cc(Br)c(O)c1Br` [Eosin Y], the Epsilon (in ideal solvent) is given as 112,000. The “Lambda Max” value (peak absorption in visible light) was 525.
